Results: article PMC3994062, “Inhibition of Paracoccidioides lutzii Pb01 Isocitrate Lyase by the Natural Compound Argentilactone and Its Semi-Synthetic Derivatives” (PLoS ONE, 2014)
In brackets after ≈: the same amount, converted by molar mass. Read-outs that look alike come from different tables or passages of the source.

Experiments:
[1] = system: P. lutzii Pb01 yeast cells; assay: Inhibition and sensitivity assay, P. lutzii Pb01 yeast cells growth (broth macro dilution / spot on MMcM agar); format: cell-based, Paracoccidioides lutzii; conditions: for MIC: read-out: minimal inhibitory concentration; for effect on P. lutzii Pb01 yeast cells growth: glucose or acetate as carbon source, 9 to 72 µg/mL
Experimental: Inhibition assays were performed by broth macro dilution method according to NCCLS M27-A2 guidelines with modifications. For the inhibition assays, yeast cells in their exponential growth phase were kept on solid MMcM for seven days at 36°C and inoculated in liquid MMcM medium. Sterile stock solution of the argentilactone, reduced argentilactone, epoxy argentilactone and diol argentilactone were freshly prepared in water and dimethyl sulfoxide (DMSO). Serial dilutions from stock solutions were prepared with sterile MMcM medium as the diluent, to yield final compound concentrations ranging from 9 to 72 µg/mL. Drug-free controls were included. Inocula concentrations were determined spectrophotometrically at 520 nm. The mixture was vortexed to disperse the aggregated cells. P. lutzii Pb01 was grown at 36°C, 200 rpm shaking for 10 days. For the sensitivity assay, 7-day-old P. lutzii Pb01 yeast cells were grown in liquid MMcM overnight at 36°C. Samples containing 10^5, 10^4, and 10^3 cells were spotted onto MMcM agar medium supplemented with argentilactone, reduced argentilactone, epoxy argentilactone, or diol argentilactone at concentrations of 9 µg/mL, 18 µg/mL, 36 µg/mL, or 72 µg/mL. […] The plates were incubated for 6 days at 36°C before being photographed.

[2] = system: P. lutzii Pb01 differentiation from mycelium to yeast; assay: Transition from mycelium to yeast (dimorphism); format: cell-based, Paracoccidioides lutzii; conditions: glucose or acetate; 10 days at 36°C
Experimental: The differentiation from mycelium to yeast was performed in Mc Veigh and Morton (MMcM) liquid minimal medium containing glucose (0.11 M) or acetate (0.28 M) as the carbon source. The cultivation temperature was changed from 23°C to 36°C to allow the mycelium to yeast transition. The cells were previously grown in liquid medium for 18 h before changing the incubation temperature, which was maintained for 10 days. The appearance of yeast cells was monitored using a Neubauer chamber.

PbICLr = PbICLr (Paracoccidioides lutzii, UniProt C1H8F5); assay: Enzymatic activity of recombinant isocitrate lyase (PbICLr); format: biochemical; conditions: for Specific activity PbICLr: control 2.55±0.02
Experimental: Recombinant PbICL protein was obtained as described by Cruz. Briefly, Pbicl cDNA was inserted into the pET-32a (+) expression vector (Novagen, Inc,). The resulting plasmid was transformed into E. coli BL21 C43 (DE3) cells, and expression was induced at an A600 of 0.6 by the addition of 1 mm (final concentration) isopropyl thio-β-D-galactoside (IPTG) (Sigma-Aldrich). After induction, the cells were incubated for another 2 h at 36°C with shaking at 200 rpm. The cells were harvested by centrifugation at 10,000×g for 5 min at 4°C and resuspended in 1 × NaCl/Pi buffer. After incubation for 30 min with 100 µg/mL lysozyme, the cells were lysed by extensive sonication. The sample was centrifuged at 4°C and 8,000×g for 15 min, and the supernatant, which contained the soluble protein fraction, was collected. His-tagged ICL was purified using the Ni-NTA Spin Kit (Qiagen), and the tags were subsequently removed by the addition of EKMax™ enterokinase (Invitrogen).
(§1) ICL activity was determined according to Cruz et al.. Reactions were performed in 1 mL assay volume containing 2 mM threo-D,L-isocitrate (effective concentration of threo-D-isocitrate 1 mM), 2 mM MgCl2, 10 mM phenylhydrazine HCl, 2 mM dithiothreitol, and 50 mM Tris HCl buffer (pH 7.0). The product glyoxylate-phenylhydrazone was followed at 324 nm using an extinction coefficient of 16.8 mM^−1.cm^−1. One unit of enzyme activity was defined as the formation of 1 µmol of glyoxylate-phenylhydrazone per minute using threo-D,L-isocitrate as the substrate. The specific activities were given as U.mg^−1 protein.
(§2) The compound concentrations were 10 µM, 20 µM, 30 µM, and 40 µM for recombinant PbICL and 30 µM, 40 µM, 50 µM, 60 µM, 70 µM, 80 µM and 90 µM for native PbICL. 3-nitropropinate (50.7 µM) was used as positive control. To the assays of specific activity of PbICL from mycelium, transition, and yeast, the cells were cultured for 10 days on 23°C and 36°C, and were used 18 µg/mL of argentilactone.

PbICLc = PbICLc (Paracoccidioides lutzii, UniProt C1H8F5); assay: Enzymatic activity of native PbICL in crude protein extract of yeast cells (PbICLc); format: biochemical; conditions: for inhibition of native PbICL activity: crude extract of yeast cells; for Specific activity PbICLc Acetate: crude extract of yeast cells grown on acetate, control 0.080±0.004; for Specific activity PbICLc Acetate / Specific activity PbICLc Glucose / IC50 / IC50 PbICLc Acetate / IC50 PbICLc Glucose: N.I. = No inhibition found; for Specific activity PbICLc Glucose: crude extract of yeast cells grown on glucose, control 0.010±0.002; for IC50 / IC50 PbICLc Acetate / IC50 PbICLc Glucose: crude extract
Experimental: P. lutzii Pb01 yeast cells grown for 24 h in liquid minimal MMcM medium containing glucose or acetate as the carbon source were centrifuged for 5 min at 2.500×g. The proteins were extracted as previously described. The cells were washed with sterilized water and frozen in liquid nitrogen. The material was ground to a fine powder; resuspended in 500 µL of 50 mM potassium phosphate buffer (pH 7.0) supplemented with 1 mM dithiothreitol (DTT) and vigorously mixed with glass beads for 20 min at 4°C. The cell debris was removed by centrifugation for 15 min at 4°C and 5,000×g, and the supernatant was centrifuged for 15 min at 4°C and 12,000×g. The cell-free extract was used for the ICL activity assays or stored at −20°C for further analyses. Quantification of the protein content was performed according to Bradford.
as §1, §2

[3] = system: P. lutzii Pb01 yeast cells; assay: Viability assay of P. lutzii Pb01 yeast cells (Neubauer chamber); format: cell-based, Paracoccidioides lutzii; conditions: 18 µg/mL, after 6 h of incubation
Experimental: P. lutzii Pb01 yeast cells were sub-cultured every 7 days in solid Fava-Netto’s medium at 36°C. For viability experiments, yeast cells were kept in liquid McVeigh Morton (MMcM) chemically defined medium for 6 h at 36°C and viability of the cells determined by counting viable cells in a Neubauer chamber. All experiments were performed in triplicate.

MRC5 cells = assay: Toxicity to MRC5 cells; format: cell-based; conditions: 18 µg/mL; data not shown
PbICL = PbICL activity from phases of P. lutzii Pb01 cultured with argentilactone; format: biochemical, Paracoccidioides lutzii; conditions: for PbICL specific activity: treated with 18 µg/mL; for inhibition of PbICL: 18 µg/mL, over the phases
Experimental: as §1, §2

dermatophytes = system: dermatophytes; set-up: method as in doi:10.1590/S0103-50532004000500023; conditions: cited from earlier work
[4] = recombinant enzyme, N.I. = No inhibition found
[5] = read-out: IC50 PbICLc Acetate, acetate
[6] = read-out: IC50 PbICLc Glucose, glucose

PbICLr, sequence (C1H8F5 entry or part of it): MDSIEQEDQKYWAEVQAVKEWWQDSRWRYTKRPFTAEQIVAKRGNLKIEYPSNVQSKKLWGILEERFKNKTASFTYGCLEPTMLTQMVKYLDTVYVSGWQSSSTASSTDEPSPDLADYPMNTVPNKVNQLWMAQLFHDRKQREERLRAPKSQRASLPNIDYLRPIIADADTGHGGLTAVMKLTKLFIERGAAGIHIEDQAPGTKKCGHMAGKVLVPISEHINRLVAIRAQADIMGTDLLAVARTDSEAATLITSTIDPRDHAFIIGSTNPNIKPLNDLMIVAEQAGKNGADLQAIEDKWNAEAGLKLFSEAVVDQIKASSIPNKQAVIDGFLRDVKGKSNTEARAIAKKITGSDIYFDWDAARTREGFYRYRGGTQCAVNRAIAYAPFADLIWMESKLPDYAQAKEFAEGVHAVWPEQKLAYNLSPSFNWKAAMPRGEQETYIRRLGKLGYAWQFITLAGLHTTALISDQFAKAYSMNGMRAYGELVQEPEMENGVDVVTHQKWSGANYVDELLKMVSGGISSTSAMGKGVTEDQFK
PbICLc, sequence (C1H8F5 entry or part of it): as above

Row | Compound | MIC ([1]; acetate as carbon source) [µg/mL] | MIC ([1]; glucose as carbon source) [µg/mL] | effect on P. lutzii Pb01 yeast cells growth [1] | inhibition of the dimorphism mycelium to yeast [2] | IC50 (PbICLr) [µM] | Specific activity PbICLr (PbICLr; [4]) | inhibition of native PbICL activity (PbICLc) | Specific activity PbICLc Acetate (PbICLc) | Specific activity PbICLc Glucose (PbICLc) | IC50 (PbICLc; [5]) [µM] | IC50 (PbICLc; [6]) [µM] | effect against PbICLr (PbICLr; recombinant enzyme) | IC50 PbICLr (PbICLr; [4]) | IC50 PbICLc Acetate (PbICLc; acetate) | IC50 PbICLc Glucose (PbICLc; glucose) | further results
1 | CCCCCCCC1CC=CC(=O)O1 (stereo in doubt) [Reduced argentilactone, 2H-Pyran-2-one, 6-heptyl-5,6-dihydro-, (6R)] | 9 (≈ 45.9 µM) | 18 (≈ 91.7 µM) | dose-dependent inhibition | the effect was reduced | 30.2 ± 0.04 | 0.93±0.01 U/mg | inhibited | 0.067±0.004 U/mg | 0.009±0.003 U/mg | 60 ± 0.02 | 85 ± 0.01 | – | – | – | – | –
2 | O=C(O)CC[N+](=O)[O-] [3-Nitropropionate, reference compound] | – | – | – | – | – | 0.81±0.01 U/mg | – | 0.036±0.002 U/mg | 0.008±0.001 U/mg | – | – | – | – | – | – | IC50 (PbICLr; recombinant enzyme, N.I. = No inhibition found, read-out: IC50 PbICLr): 25.7 ± 0.01 µM; IC50 (PbICLc; acetate, read-out: IC50 PbICLc Acetate): 45.4 ± 0.01 µM; IC50 (PbICLc; glucose, read-out: IC50 PbICLc Glucose): 76 ± 0.01 µM
3 | CCCCC/C=C\[C@H]1CC=CC(=O)O1 [Argentilactone, 2H-Pyran-2-one, 6-(1-heptenyl)-5,6-dihydro-, [R-(Z)]] | 9 (≈ 46.3 µM) | 18 (≈ 92.7 µM) | dose-dependent inhibition | dose-dependent inhibition | 28.8 ± 0.01 | 0.86±0.01 U/mg | inhibited | 0.040±0.001 U/mg | – | 50 ± 0.03 | 80 ± 0.02 | – | – | – | – | decrease of viability [3]: approximately 15%; toxicity to MRC5 cells (MRC5 cells): not toxic; PbICL specific activity (PbICL; Mycelium to Yeast, Acetate): 0.055±0.003 U; PbICL specific activity (PbICL; Mycelium to Yeast, Glucose): 0.055±0.001 U; PbICL specific activity (PbICL; Mycelium, Acetate): 0.055±0.005 U; PbICL specific activity (PbICL; Mycelium, Glucose): T 0.045±0.001 U; PbICL specific activity (PbICL; Yeast, Acetate): 0.120±0.003 U; PbICL specific activity (PbICL; Yeast, Glucose): 0.085±0.001 U; inhibition of PbICL (PbICL; acetate): ~45%; inhibition of PbICL (PbICL; glucose): ~30%; minimal inhibitory concentration (dermatophytes): 31 µg/mL (≈ 160 µM)
4 | CCCCC[C@@H](O)[C@H](O)[C@H]1CC=CC(=O)O1 [Diol argentilactone, 2H-Pyran-2-one, 6-(1,2-dihydroxyheptyl)-5,6-dihydro-, [6R-(1S, 2R)]] | – | – | very small effect | did not interfere | – | N.I. ^** | No inhibition | N.I. ^** | N.I. ^** | – | – | no effect | N.I. ^** | N.I. ^** | N.I. ^** | –
5 | CCCCCC1OC1C1CC=CC(=O)O1 [Epoxi argentilactone, 2H-Pyran-2-one, 5,6-dihydro-6-[(2S, 3S)-3-pentyl-2-oxiranyl] -, (6R)] | – | – | very small effect | did not interfere | – | N.I. ^** | No inhibition | N.I. ^** | N.I. ^** | – | – | no effect | N.I. ^** | N.I. ^** | N.I. ^** | –
